Assay results from patent publication US20150342893A1 (SIGMOID PHARMA LIMITED, priority 2014, published 2015).

Key:
HT29 cells [1] = assay: Annexin V-PE / 7-AAD cell viability and apoptosis assay by flow cytometry; assay type: cell-based, human
Method: HT29 is a COX-2 positive human colorectal adenocarcinoma cell line and is in particular a model for adenocarcinoma, especially COX-2 positive adenocarcinoma. The HT29 cell line was grown in McCoy's 5A modified medium supplemented with 1.5 mM L-glutamine, 10% FBS (fetal bovine serum) and 1% penicillin/streptomycin. The cells were grown in a humidified atmosphere containing 5% CO2.
Two control groups were employed, one which involved no treatment (referred to as media) and the other which involved treatment with DMSO alone. Cell viability and the onset of apoptosis was monitored using an Annexin-PE Apoptosis Detection Kit which contains recombinant Annexin V-fluorochrome phycoerythrin (PE) conjugate and the vital dye 7-amino-actinomycin (7-AAD) followed by flow cytometry on a FACSCalibur system using CellQest software (BD Biosciences, USA) . Data for at least 10,000 cells were collected for each analysis made and two-dimensional plots of 7-AAD versus PE were generated.

[2] = cited from earlier work
HT29 cells [3] = assay: MTT cell proliferation assay; assay type: cell-based; details: Homo sapiens, HT-29, 72 hrs, tested at 20, 30, 50 and 100 μM, read-out: IC50 dose (dose required to reduce cell proliferation by 50% compared to medium)
Method: HT29 is a COX-2 positive human colorectal adenocarcinoma cell line and is in particular a model for adenocarcinoma, especially COX-2 positive adenocarcinoma. […] The cells were grown in a humidified atmosphere containing 5% CO2. Cell proliferation was measured using the VybrantMTT assay kit according to the manufacturer's guidelines. HT29 cells (10,000 cells) cells were plated in 100 μl of complete McCoy's 5A media in 96-well tissue culture dishes. […] In the case of celecoxib dissolved in DMSO, the celecoxib was dissolved overnight in DMSO before treatment. Two control groups were employed, one which involved no treatment (referred to as media) and the other which involved treatment with DMSO alone. […] The absorbance (A) was determined in a BioRad 680 microplate reader (BioRad, USA) at 550 nm.

[4] = at 20° C.; cited from earlier work
[5] = Solubilisation measurements of celecoxib in vehicles (oils, surfactants, co-solvents); assay type: physicochemical
Method: Solubilisation studies were performed using a wide range of vehicles consisting of oils, surfactants and co-solvents. The vehicles used were Kolliphor® HS 15, Transcutol® P, Kolliphor® EL, Miglyol® 810N, Tween® 20 and Capryol® 90.
Celecoxib was added to measured quantities of the vehicles (excipients) in glass vials. These mixtures were stirred at room temperature on a magnetic stirrer; as an exception, the solubilisation measurements were performed at elevated temperatures in respect of vehicles which were solid at room temperature.

[6] = Precipitation of drug during minibead manufacture (surfactant phase in contact with gelatin phase); assay type: physicochemical; details: inhibitor added to celecoxib minibead formulation
Method: Minibeads containing celecoxib were prepared via a manual drop in oil method. The minibeads were manufactured by combining the surfactant phase (drug dissolved in vehicles) with a gelatin phase (mixture of gelatin, water, sorbitol and SDS) and mixing at approximately 60° C. Droplets of the mixture were then allowed to fall into a bath of cooling/hardening oil (Miglyol® 810N) at approximately 10° C. As the mixture droplets fall in air, coacervation occurs to form a coacervate suspension in which droplets of the surfactant phase are surrounded by a layer of gelatine (multiple coacervates exist within a single minibead). The dropping of the minibead into a cooling/hardening bath allows the minibeads to harden before being recovered for drying. […] A range of oils was investigated (olive oil, mineral oil and other medium chain triglycerides) for use as the cooling/hardening oil in the production of minibeads. […] The minibeads were then air dried for 24 hr (over this time the water in the formulation evaporated). In some of the formulations other components were added to the gelatin phase to prevent precipitation of drug during manufacturing and also to help maintain the minibead structure.
Similar formulations were produced in which the drug loading was increased to 9-10% w/w, however precipitation was evident for these formulations on contact of the surfactant phase with the gelatin phase. […]

| Structure (SMILES) | % of cells that died by necrosis (HT29 cells [1]; 50 μM, 72 h) [%] | combined % of cells that died via apoptosis (late and early apoptosis) (HT29 cells [1]; 50 μM, 72 h) [%] | viability at 50 µM (HT29 cells [1]; Homo sapiens, HT-29, 72 h, n=6, read-out: % viable cells) [%] | Log P [2] | IC50 (HT29 cells [3]) [µM] | aqueous solubility [4] [µg/mL] | solubility of celecoxib in Capryol 90 ([5]; vehicle Capryol 90, range between transparent and cloudy) [mg/g] | solubility of celecoxib in 2-(2-ethoxyethoxy)ethanol (Transcutol P) ([5]; vehicle Transcutol P) [mg/g] | maximum solubility of celecoxib in ethanol ([5]; vehicle ethanol) [mg/g] | Effect (potential precipitation inhibitor) [6] |
| --- | --- | --- | --- | --- | --- | --- | --- | --- | --- | --- |
| Cc1ccc(-c2cc(C(F)(F)F)nn2-c2ccc(S(N)(=O)=O)cc2)cc1 [Celecoxib, celecoxib] | 13.96±2.48 | 17.02±1.63 | 69 ± 2.71 | 3.5 | > 100 | 3 to 7 | 58 to 64 | 345 to 390 | 100 to 125 |  |
| CC(=O)Oc1c(C)c(C)c2c(c1C)CCC(C)(CCC[C@H](C)CCC[C@H](C)CCCC(C)C)O2 (stereo partly shown) [Vitamin E Acetate, vitamin E acetate] |  |  |  |  |  |  |  |  |  | Effective precipitation inhibitor but negative |
